Reference: publication PMC3019604 (ACS medicinal chemistry letters, 2010)

System: BJ, HEK293, HEP G2, and Raji cell lines
Assay: Cytotoxicity
Type: cell-based, human
Conditions: four mammalian cell lines (BJ, HEK293, HEP G2, Raji)

Cc1cc(NC(=O)Nc2cccc(OC(F)(F)F)c2)c2ccccc2n1 [4{13, 34}]
mammalian cytotoxicity (in words): weak
